Like-named read-outs stand apart in the source and are kept apart here. Marks after values point to notes of the source that are not given here.
Legend:
[1] = biological target: T1, PSOMT2 ((R,S)-norcoclaurine 6-O-methyltransferase) (Papaver somniferum, UniProt Q6WUC1); assay: Radioassay of recombinant PSOMT2 with [methyl-3H]-AdoMet (substrate specificity, kinetics, pH and temperature optima); assay type: biochemical; conditions: for Substrate specificity, relative activity of PSOMT2: 100% activity = 2.0 pmoles/sec/mg total protein, radioassay
T1 construct: The full-length cDNA generated by RT-PCR was ligated into pFastBac HTa; His6 (N); made in house; host or cells: Spodoptera frugiperda Sf9 (baculovirus, pFastBac HTa)
T1 sequence (Q6WUC1 1-346): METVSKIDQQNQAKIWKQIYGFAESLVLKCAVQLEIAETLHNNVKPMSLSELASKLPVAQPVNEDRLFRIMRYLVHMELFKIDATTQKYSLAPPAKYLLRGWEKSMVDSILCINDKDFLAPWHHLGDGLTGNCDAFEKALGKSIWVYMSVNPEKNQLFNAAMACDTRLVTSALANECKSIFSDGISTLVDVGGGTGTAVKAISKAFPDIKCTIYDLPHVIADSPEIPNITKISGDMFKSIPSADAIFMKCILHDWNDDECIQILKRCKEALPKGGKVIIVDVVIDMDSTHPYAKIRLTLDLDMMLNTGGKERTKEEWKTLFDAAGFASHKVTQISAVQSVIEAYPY
Source text: (§1) Heterologous Expression and Enzyme Purification—The full-length cDNA generated by RT-PCR was ligated into pFastBac HTa that had been digested with restriction endonucleases BamHI and NotI. The recombinant plasmid was transposed into baculovirus DNA in the Escherichia coli strain DH10BAC (Life Technologies) and then transfected into Spodoptera frugiperda Sf9 cells according to the manufacturer's instructions. The insect cells were propagated and the recombinant virus was amplified according to (16,17). INSECT-XPRESS serum-free medium (Bio Whittaker) was used in the enzyme expression experiments.
(§2) After infection of 20 ml suspension grown insect cells had proceded for 3-4 days at 28° C. and 130 rpm, the cells were removed by centrifugation under sterile conditions at 900× g for 5 min at 4° C. All subsequent steps were performed at 4° C. The pellet was discarded and to the medium was added 0.73 g NaCl, 2.5 ml glycerol and 50 μl […]-mercaptoethanol. The pH was adjusted to 7.0 with 1.0 M NaOH. The His-tagged O-methyltransferase was then purified by affinity chromatography using a cobalt resin (Talon, Clontech) according to the manufacturer's instructions.
(§3) Enzyme assay and product identification: The O-methylation reactions catalysed by the two O-methyltransferases were assayed at least two times in duplicate according to Rüffer et al. (1983a; 1983b) as follows. Substrate (25 nmol), [methyl-3H]-AdoMet (20,000 dpm, 0.4 fmol), AdoMet (10 nmol) Tris/HC1 buffer pH 8.0 (10 μmol), ascorbate (5 μmol) and 5-10 μg of enzyme were incubated in a total volume of 150 μl at 35° C. for 5-60 min. The enzymic reaction was terminated by addition of 200 μl ethylacetate. The organic phase ([…]) was added to 3 ml high flash point liquid scintillation cocktail (Packard) and the radioactivity quantified with a Beckman LS6000TA liquid scintillation counter.
(§4) General Methods—Total RNA was isolated and RNA gels were run and blotted as described previously (20). Genomic DNA was isolated and DNA gels were run and blotted according to (21). cDNA clones were labeled by PCR labeling with [[…]-^32P]dATP. Hybridized RNA on RNA gel blots and DNA on DNA gel blots were visualized with a STORM phosphor imager (Molecular Dynamics). The entire nucleotide sequence on both DNA strands of the full-length clone was determined by dideoxy cycle sequencing using internal DNA sequences for the design of deoxyoligonucleotides as sequencing primers. Saturation curves and double reciprocal plots were constructed with the Fig. P program Version 2.7 (Biosoft, Cambridge, UK). The influence of pH on enzyme activity was monitored in sodium citrate (pH 4-6), sodium phosphate (pH 6-7.0) and Tris-HCl (pH 7.0-9), glycine/NaOH (pH 9-10.5) buffered solutions.

[2] = biological target: T2, PSOMT1 ((R,S)-reticuline 7-O-methyltransferase) (Papaver somniferum, UniProt Q6WUC2); assay type: biochemical; conditions: for methylated by PSOMT1 (radioassay, in words): one of forty substrates tested; for Km: read-out: Km Substrate
T2 construct: The full-length cDNA generated by RT-PCR was ligated into pFastBac HTa; His6 (N); made in house; host or cells: Spodoptera frugiperda Sf9 (baculovirus, pFastBac HTa)
Source text: as §1, §2, §3, §4

[3] = 100% activity = 1.5 pmoles/sec/mg total protein, radioassay

T2 sequence (Q6WUC2 whole entry): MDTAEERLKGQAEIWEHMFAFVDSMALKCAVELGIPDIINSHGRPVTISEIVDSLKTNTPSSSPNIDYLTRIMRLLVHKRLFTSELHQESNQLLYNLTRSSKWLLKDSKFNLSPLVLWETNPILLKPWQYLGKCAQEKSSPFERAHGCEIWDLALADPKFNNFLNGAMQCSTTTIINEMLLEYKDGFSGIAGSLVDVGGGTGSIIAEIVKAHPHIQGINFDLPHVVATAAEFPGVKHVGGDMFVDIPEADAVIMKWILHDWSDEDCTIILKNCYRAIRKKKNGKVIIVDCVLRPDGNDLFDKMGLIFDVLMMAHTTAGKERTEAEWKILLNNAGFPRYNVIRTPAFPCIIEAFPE

SMILES | Substrate specificity, relative activity of PSOMT2 [1] | Substrate specificity, relative activity of PSOMT1 [2, 3] [%] | other results
COc1ccc(CC2NCCc3cc(OC)c(O)cc32)cc1 (racemic) [(R,S)-4′-O-methylcoclaurine] | 0% | 0 | 
COc1cc2c(cc1O)C(Cc1ccc(O)c(O)c1)N(C)CC2 (racemic) [(R,S)-6-O-Methyllaudanosoline] | 0% | 0 | 
COc1cc2c(cc1O)[C@H](Cc1ccc(OC)c(OC)c1)N(C)CC2 (racemic) [(R,S)-Codamine] | 0% | 0 | 
COc1cc2c(cc1O)CCNC2Cc1ccc(O)cc1 (racemic) [(R,S)-Isococlaurine] | 0% | 0 | 
COc1ccc(CC2c3cc(OC)c(OC)cc3CCN2C)cc1O (racemic) [(R,S)-Laudanidine] | 0% | 0 | 
COc1cc2c(cc1O)C(Cc1ccc(O)cc1)N(C)CC2 (racemic) [(R,S)-N-Methylcoclaurine] | 0% | 0 | 
Oc1ccc(CC2NCCc3cc(O)c(O)cc32)cc1 (racemic) [(R,S)-Norcoclaurine] | 100^a % | 0 | Vmax Substrate ([1]; PSOMT2): 5 pmol/s; kcat Substrate ([1]; PSOMT2): 0.08 s⁻¹; Km ([1]; PSOMT2, co-substrate AdoMet with the named substrate, read-out: Km AdoMet): 100 µM; Km ([1]; PSOMT2, read-out: Km Substrate): 10 µM; pH range of methylation ([1]; PSOMT2, wide pH range): 6.0-9.0; methylated by PSOMT2 (radioassay, in words) ([1]; one of forty substrates tested): methylating
COc1cc(CC2NCCc3cc(OC)c(O)cc32)ccc1O (racemic) [(R,S)-Nororientaline] | 0% | 0 | 
COc1ccc2c(c1)CCN[C@@H]2Cc1ccc(OC)c(O)c1 [(R)-7-Dehydroxy-norreticuline] | 0% | 0 | 
COc1ccc(C[C@H]2NCCc3cc(OC)c(O)cc32)cc1O [(R)-Norreticuline] | 0% | 0 | 
COc1ccc(C[C@H]2c3cc(O)c(O)cc3CCN2C)cc1O [(S)-4′-O-Methyllaudanosoline] | 0% | 0 | 
COc1ccc2c(c1)CCN[C@H]2Cc1ccc(OC)c(O)c1 [(S)-7-Dehydroxy-norreticuline] | 0% | 0 | 
COc1cc2c(cc1O)[C@H](Cc1ccc(O)cc1)NCC2 [(S)-Coclaurine] | 0% | 0 | 
COc1cc2c(cc1O)C[C@H]1c3cc(O)c(OC)cc3CCN1C2 [(S)-Coreximine] | 0% | 0 | 
COc1ccc(C[C@@H]2NCCc3cc(OC)c(O)cc32)cc1O [(S)-Norreticuline] | 0% | 0 | 
COc1cc2c(cc1O)[C@@H]1Cc3ccc(OC)c(O)c3CN1CC2 [(S)-Scoulerine] | 0% | 0 | 
O=C(O)/C=C/c1ccc(O)c(O)c1 [Caffeic acid] | 0% | 0 | 
Oc1ccccc1O [Catechol] | 0% | 0 | 
NCCc1ccc(O)c(O)c1 [Dopamine] | 0% |  | Substrate specificity, relative activity of PSOMT1 [2]: 0%
O=c1ccc2cc(O)c(O)cc2o1 [Esculetin] | 0% | 0 | 
COc1ccccc1O [Guaiacol] | 0% | 242 | Vmax Substrate ([2]; PSOMT1): 6 pmol/s; kcat Substrate ([2]; PSOMT1): 0.1 s⁻¹; kcat/Km ratio relative to the values determined for reticuline ([2]; PSOMT1): 135%; pH optimum of methylation ([2]; PSOMT1): 8.0; ratio kcat/Km ([2]; PSOMT1): 5870 M⁻¹ s⁻¹; temperature optimum ([2]; PSOMT1): 37 °C; methylated by PSOMT1 (radioassay, in words) [2]: methylates; Km ([2]; PSOMT1): 17 µM
COc1ccc(C(=O)O)cc1O [Isovanillic acid] | 0% | 40 | Vmax Substrate ([2]; PSOMT1): 1 pmol/s; kcat Substrate ([2]; PSOMT1): 0.02 s⁻¹; pH optimum of methylation ([2]; PSOMT1): 7.5; ratio kcat/Km ([2]; PSOMT1): 1210 M⁻¹ s⁻¹; methylated by PSOMT1 (radioassay, in words) [2]: methylates; Km ([2]; PSOMT1): 14 µM
O=c1c(O)c(-c2ccc(O)cc2O)oc2cc(O)cc(O)c12 [Morin] | 0% | 0 | 
CN1CC[C@]23c4c5ccc(O)c4O[C@H]2[C@@H](O)C=C[C@H]3[C@H]1C5 [Morphine] | 0% | 0 | 
O=C(O)c1ccc(O)c(O)c1 [Protocatechuic acid] | 0% | 0 | 
COc1c(-c2ccc(O)c(O)c2)oc2cc(O)cc(O)c2c1=O [Quercetin-3-methylether] | 0% | 0 | 
COc1cc(O)c2c(=O)c(O)c(-c3ccc(O)c(O)c3)oc2c1 [Quercetin-7-methylether] | 0% | 0 | 
O=c1c(O)c(-c2ccc(O)c(O)c2)oc2cc(O)cc(O)c12 [Quercetin] | 0% | 0 | 
COC1=C[C@]23CCN(C)[C@H](Cc4ccc(OC)c(O)c42)C3=CC1=O [Salutaridine] | 0% | 0 | 
COc1cc(C(=O)O)ccc1O [Vanillic acid] | 0% | 0 | 
